From US8791132B2, “Compounds and methods for treatment of hypertension” (Medivation Technologies, Inc., priority 2011, dated 2014)
“And” between values parts separate entries of the source, which are not always exact repeats. Equal values may be shown once. Read-outs that look alike come from different tables or passages of the source.

Columns and labels:
[1] = molecular target: T1, human recombinant adrenergic α2B receptor (Homo sapiens, UniProt P18089); assay: Radioligand binding, adrenergic α2B ([3H]Rauwolscine); settings: for inhibition at 0.03 µM / inhibition at 0.1 µM / Percentage inhibition of ligand binding, Adrenergic α2B: [3H]Rauwolscine; for Ki: read-out: Ki α2B
T1 construct: expressed in transfected cells; host or cells: CHO-K1
T1 sequence (P18089 1-450): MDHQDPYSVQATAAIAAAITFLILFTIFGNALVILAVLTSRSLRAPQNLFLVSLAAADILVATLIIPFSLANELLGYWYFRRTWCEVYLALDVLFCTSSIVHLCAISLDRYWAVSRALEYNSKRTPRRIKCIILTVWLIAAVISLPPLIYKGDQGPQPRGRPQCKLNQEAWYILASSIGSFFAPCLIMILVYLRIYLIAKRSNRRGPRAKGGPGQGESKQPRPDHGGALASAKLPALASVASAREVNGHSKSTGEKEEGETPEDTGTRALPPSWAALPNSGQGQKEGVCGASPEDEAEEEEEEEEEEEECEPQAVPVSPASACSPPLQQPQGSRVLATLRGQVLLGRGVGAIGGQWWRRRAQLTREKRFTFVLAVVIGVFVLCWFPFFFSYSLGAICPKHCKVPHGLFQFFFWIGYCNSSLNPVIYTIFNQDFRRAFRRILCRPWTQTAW
Procedure, shortened: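 Values are percent inhibition of specific radioligand binding. The receptor, expressed in CHO-K1 cells, was exposed to 2.5 nM [3H]Rauwolscine at 25° C for 60 min, with 10 μM Prazosin marking non-specific binding.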

[2] = molecular target: T2, human recombinant adrenergic α2A receptor (Homo sapiens, UniProt P08913); assay: Radioligand binding, adrenergic α2A ([3H]MK-912); settings: for inhibition at 0.1 µM / inhibition at 0.03 µM / Percentage inhibition of ligand binding, Adrenergic α2A: [3H]MK-912; for inhibition at 0.03 µM: compound at 0.03 μM; for Percentage inhibition of ligand binding, Adrenergic α2A: 0.1 µM
T2 construct: expressed in transfected cells; host or cells: insect Sf9 cells
T2 sequence (P08913 1-465): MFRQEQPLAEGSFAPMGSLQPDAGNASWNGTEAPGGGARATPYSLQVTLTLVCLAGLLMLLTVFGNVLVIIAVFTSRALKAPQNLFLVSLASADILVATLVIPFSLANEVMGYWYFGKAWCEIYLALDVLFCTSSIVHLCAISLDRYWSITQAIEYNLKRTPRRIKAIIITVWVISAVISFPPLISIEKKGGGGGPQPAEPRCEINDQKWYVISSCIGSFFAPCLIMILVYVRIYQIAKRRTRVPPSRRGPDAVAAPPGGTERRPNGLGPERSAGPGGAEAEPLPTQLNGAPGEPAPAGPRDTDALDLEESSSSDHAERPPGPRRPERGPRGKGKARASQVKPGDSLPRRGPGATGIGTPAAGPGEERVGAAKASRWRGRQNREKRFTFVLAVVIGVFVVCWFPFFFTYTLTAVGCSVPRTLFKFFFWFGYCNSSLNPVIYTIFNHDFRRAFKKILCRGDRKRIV
Procedure, shortened: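 Sf9 membranes, 1 nM [3H]MK-912, 60 min, 25 °C, Tris-HCl pH 7.4/MgCl2/EDTA buffer. NSB: 10 μM WB-4101. Filtration, counting; % inhibition of specific binding.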

[3] = molecular target: T3, rat adrenergic α1B receptor (Rattus norvegicus, UniProt P15823); assay: Radioligand binding, adrenergic α1B ([3H]Prazosin); settings: for inhibition at 0.03 µM / inhibition at 0.1 µM / Percentage inhibition of ligand binding, Adrenergic α1B: [3H]Prazosin
T3 construct: rat adrenergic α1B receptor obtained from Wistar Rat liver; from tissue; host or cells: Wistar rat liver
T3 sequence (P15823 1-515): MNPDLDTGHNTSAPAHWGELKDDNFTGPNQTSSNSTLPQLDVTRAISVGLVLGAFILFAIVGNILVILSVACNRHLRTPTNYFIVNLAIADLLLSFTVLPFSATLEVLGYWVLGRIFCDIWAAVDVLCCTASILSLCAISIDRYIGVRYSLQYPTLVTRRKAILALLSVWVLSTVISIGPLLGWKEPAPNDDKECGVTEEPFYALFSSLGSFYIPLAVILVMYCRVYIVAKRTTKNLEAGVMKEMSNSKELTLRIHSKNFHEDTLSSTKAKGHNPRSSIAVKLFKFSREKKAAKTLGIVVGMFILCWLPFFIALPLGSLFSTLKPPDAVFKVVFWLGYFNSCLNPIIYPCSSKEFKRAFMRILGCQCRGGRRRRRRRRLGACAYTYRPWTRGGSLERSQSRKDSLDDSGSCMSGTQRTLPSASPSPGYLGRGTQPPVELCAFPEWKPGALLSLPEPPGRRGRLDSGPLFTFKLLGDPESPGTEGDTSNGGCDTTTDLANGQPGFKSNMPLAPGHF
Procedure, shortened: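 Specific binding, taken as total minus that remaining with 10 μM phentolamine, is measured after filtration and counting. Rat liver receptor preparation and 0.25 nM [3H]prazosin are incubated with compound in 50 mM Tris-HCl (pH 7.4, 0.5 mM EDTA) at 25° C for 60 min. Activity is reported as percent inhibition.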

[4] = compound at 0.03 μM, repeat assays, each datapoint shown, 0.03 µM
[5] = repeat assays, each datapoint shown, read-out: Percentage inhibition of ligand binding, Adrenergic α2A
[6] = compound at 0.1 μM, repeat assays, each datapoint shown
[7] = compound at 0.1 μM, repeat assays, each datapoint shown, 0.1 µM
[8] = compound at 0.03 μM, repeat assays, each datapoint shown, read-out: Percentage inhibition of ligand binding, Adrenergic α2B
[9] = compound at 0.1 μM, repeat assays, each datapoint shown, read-out: Percentage inhibition of ligand binding, Adrenergic α2B
[10] = compound at 0.1 μM, repeat assays, each datapoint shown, read-out: Percentage inhibition of ligand binding, Adrenergic α2A
[11] = compound at 0.03 μM, repeat assays, each datapoint shown, read-out: Percentage inhibition of ligand binding, Adrenergic α1B
[12] = compound at 0.1 μM, repeat assays, each datapoint shown, read-out: Percentage inhibition of ligand binding, Adrenergic α1B

Compound	inhibition at 0.03 µM ([1]; read-out: Percentage inhibition of ligand binding, Adrenergic α2B (0.03 μM), compound at 0.03 μM, repeat datapoints each shown)	inhibition at 0.1 µM ([1]; read-out: Percentage inhibition of ligand binding, Adrenergic α2B (0.1 μM), compound at 0.1 μM, repeat datapoints each shown)	inhibition at 0.1 µM ([2]; read-out: Percentage inhibition of ligand binding, Adrenergic α2A (0.1 μM), compound at 0.1 μM, repeat datapoints each shown)	inhibition at 0.03 µM ([3]; read-out: Percentage inhibition of ligand binding, Adrenergic α1B (0.03 μM), compound at 0.03 μM, repeat datapoints each shown)	inhibition at 0.1 µM ([3]; read-out: Percentage inhibition of ligand binding, Adrenergic α1B (0.1 μM), compound at 0.1 μM, repeat datapoints each shown)	Percentage inhibition of ligand binding, Adrenergic α2B [1, 4]	Ki [1]	Ki [2]	inhibition at 0.03 µM [2, 5]	Percentage inhibition of ligand binding, Adrenergic α2A [2, 6]	Ki [3]	Percentage inhibition of ligand binding, Adrenergic α1B [3, 4]	Percentage inhibition of ligand binding, Adrenergic α1B [3, 7]	inhibition at 0.03 µM [1, 8]	inhibition at 0.1 µM [1, 9]	inhibition at 0.1 µM [2, 10]	inhibition at 0.03 µM [3, 11]	inhibition at 0.1 µM [3, 12]	Percentage inhibition of ligand binding, Adrenergic α2B [1, 7]
Cc1ccc(C(O)Cn2c3c(c4cc(C)ccc42)CN(C)CC3)cc1 (racemic) [compound 183, racemic-2-(1,2,3,4-tetrahydro-2,8-dimethylpyrido[4,3-b]indol-5-yl)-1-p-tolylethanol]	68%	80%	93%	50%	71%														
Cc1ccc2c(c1)c1c(n2CC(O)c2ccncc2)CCN(C)C1 (single isomer, unassigned) [3b]						100% and 101% and 102% and 112%	0.26 nM and 0.28 nM and 0.46 nM	139 nM and 166 nM and 222 nM	1%	21% and 22% and 23% and 25%	51 nM	27% and 32% and 34%	50% and 55% and 57% and 61%						
CN1CCc2c(c3cc(Cl)ccc3n2CC(O)c2ccncc2)C1 (single isomer, unassigned) [4a]						103%	0.64 nM	176 nM	5%	24%			57%	99%	104%	19%	25%	52%	
Cc1ccc2c(c1)c1c(n2CC(C)(O)c2cccnc2)CCN(C)C1 (single isomer, unassigned) [5b, 1-(1,2,3,4-tetrahydro-2,8-dimethylpyrido[4,3-b]indol-5-yl)-2-(pyridin-3-yl)propan-2-ol]						81% and 86% and 90% and 100%	0.95 nM and 1.06 nM and 4.53 nM	152 nM and 192 nM and 195 nM		18% and 21% and 22%	184 nM	11% and 15%	23% and 30% and 33%				10%		82% and 100% and 107%
Cc1ccc2c(c1)c1c(n2CC(O)c2ccncc2)CCN(C)CC1 (single isomer, unassigned) [13b, 2-(3,9-dimethyl-2,3,4,5-tetrahydroazepino[4,5-b]indol-6(1H)-yl)-1-(pyridin-4-yl)ethanol]						102%	0.62 nM	199 nM						100%			68%	91%	
Cc1cnc2c(c1)c1c(n2CC(C)(O)c2cccnc2)CCN2CCCC12 (single isomer, unassigned) [26a]						101% and 107%	0.56 nM	113 nM	14%	23% and 33%			52% and 61%				32%		
Cc1ccc2c(c1)c1c(n2CC(N)c2ccncc2)CCN(C)C1 (single isomer, unassigned) [27a, 2-(1,2,3,4-tetrahydro-2,8-dimethylpyrido[4,3-b]indol-5-yl)-1-(pyridin-4-yl)ethanamine]						76% and 83%	4.32 nM	1100 nM		2% and 11%			59% and 64%				34%		94%
Cc1ccc2c(c1)c1c(n2CC(O)c2ccncc2)CCNC1 (single isomer, unassigned) [39a, 2-(8-methyl-1,2,3,4-tetrahydro-pyrido[4,3-b]indol-5-yl)-1-pyridin-4-yl-ethanol]							2.5 nM	1660 nM	5%	15%			33%	86%	92%	13%	9%	38%	
